Measured values: patent publication US20240000724A1, “Compositions and Methods for Treatment or Prevention of Oral Mucositis” (PATHWAYS BIOSCIENCE, LLC, priority 2015, published 2024)
“Also recorded” adds a separate entry of the source. Where two headings read alike, the source gives them in different places.

Assays:
[1] = system: Nrf2 (ARE-driven luciferase gene expression); experiment: ARE-driven luciferase promoter-reporter assay in stably transfected human cancer cell lines; assay type: cell-based
Procedure: As an example of the properties of PB201, cell lines were cultured which had been stably transfected with constructs of the luciferase gene. This luciferase gene was driven in its promoter region by copies of the ARE Nrf2-binding sequence, known as promoter-reporter constructs (Simmons, Fan, Yeoman, Wakefield and Ramabhadran, NRF2 Oxidative Stress Induced by Heavy Metals is Cell Type Dependent, Curr Chem Genomics 5, 1-12 (2011); Shukla, Huang, Simmons, Tice, Witt, Vanleer, Ramabhadran, Austin and Xia, Profiling environmental chemicals for activity in the antioxidant response element signaling pathway using a high throughput screening approach, Environ Health Perspect 120, 1150-1156 (2012)).
Briefly, the stably transfected cells of types HepG2 (human liver), AREc32 (human breast), MCF7 (human breast), A549 (human lung), 293T (human kidney), and A172 (human brain) were seeded at low density in 24-well plates and incubated at 37° C. with 10% CO2. After 24 h various concentrations of combinations of agents were added to the cells. After an additional 18 h of incubation, the cells were lysed in their wells with 100 μl of a lysing buffer that contains 3.5 mM sodium pyrophosphate to stabilize light output by luciferase. A 20 μl aliquot of cell lysate was added to a small test tube, placed in a BD Monolight 3010 luminometer for background luminescence, and then 50 μl of 1 mM luciferin was injected into the tube. Relative Light Units integrated for 10 sec were measured for each sample.

HepG2 cells = experiment: Affymetrix PrimeView gene expression array of PB201-treated HepG2 cells; assay type: cell-based; details: Homo sapiens, 1.5 micrograms/mL, 18 hours
Procedure: As an example of the cell protective mechanisms induced by PB201 treatment, gene upregulation in cells treated with PB201 was examined. Briefly, cultured HepG2 liver cells were treated with PB201 at 1.5 micrograms/mL concentration for 18 hours, then total RNA was extracted from the HepG2 cells by using the RNeasy Total RNA Isolation Kit (QIAGEN Inc. Valencia, California, USA). The concentration of each sample was determined based on the absorbance at 260 nm (A260). The purity of each sample was determined based on the ratio of A260 to A280. A range of 1.9-2.1 was considered adequately pure. The integrity of Total RNA samples was verified by Agilent 2200 Tape Station. Total RNA (250 ng) was converted to double-stranded cDNA (ds-cDNA) by using the cDNA synthesis kit (Affymetrix). An oligo-dT primer containing a T7 RNA polymerase promoter was utilized. The ds-cDNA was then purified and recovered by using purification beads (Affymetrix). Next, in vitro transcription was performed to generate biotin-labeled cRNA using a RNA Transcript Labeling Kit (Affymetrix). Biotin-labeled cRNA was purified using an RNeasy affinity column (Qiagen).
To ensure optimal hybridization to the oligonucleotide array, the cRNA was fragmented. Fragmentation was performed such that the cRNA fragments are between 50-200 bases in length by incubating the cRNA at 94° C. for 35 min in a fragmentation buffer. The sample was then added to a hybridization solution containing 100 mM IVIES, 1 M Na+, and 20 mM EDTA in the presence of 0.01% Tween 20. The final concentration of the fragmented cRNA was […]. Hybridization was performed by incubating 200 uL of the sample to the Affymetrix GeneChip® PrimeView™ human gene expression array (Affymetrix Inc., Santa Clara, California, USA) at 45° C. for 16 hours using a GeneChip® Hybridization Oven 640 (Affymetrix).
After hybridization, the hybridization solutions were removed and the arrays were washed and stained with Streptavidin-phycoerythrin using a GeneChip® Fluidics Station 450 (Affymetrix). Arrays were read at a resolution of 2.5 to 3 microns using the GeneChip Scanner 3000 (Affymetrix). Each gene was represented by the use of −11 probes per transcript and many control probes. The Command Console GeneChip software program was used to determine the intensity of expression for all genes on the array. For this experiment, fold-induction of genes by PB201 treatment of HepG2 cells was calculated compared to the average intensity observed in control HepG2 cells in culture solution without any added stimulus such as PB201.

oral mucositis = experiment: Oral mucositis in a mammal receiving radiation treatment or chemotherapy, topical oral administration; assay type: in vivo; details: topical within oral cavity daily, vs untreated or placebo
Procedure: A formulation of PB201 was administered topically within the oral cavity daily to a mammal receiving radiation treatment or chemotherapy that can cause oral mucositis as a side effect. PB201 administration decreased the frequency and/or severity of the oral mucositis as compared to untreated or placebo treated subjects.

[2] = system: radiation-induced oral mucositis (cheek pouch ulceration); experiment: Radiation-induced oral mucositis in hamster cheek pouch; assay type: in vivo, Syrian Golden Hamsters; details: 40 Gy day 0; topical cheek pouch 1 to 10 μg PB201 3×/day days 0 to 28; scored days 6 to 28
Procedure: In this example, a single dose of radiation (40 Gy) was given on day 0 to the isolated cheek pouch and PB201 treatment was given by topical cheek pouch administration of 1 to 10 μg PB201 given three times daily from days 0 to 28 as 0.2 mL of 5 μg/mL given 3×/day or 0.2 mL of 50 μg/mL given 3×/day, and oral mucositis was determined as cheek pouch ulceration, scored every 2 days from days 6 to 28. Mucositis was scored visually by comparison to a validated photographic scale, ranging from 0 (normal) to 5 (severe ulceration). In descriptive terms, this scale is defined as follows.
A score of 1-2 is considered to represent a mild stage of the disease, whereas a score of 3-5 is considered to indicate moderate to severe mucositis.

O=C(CC(=O)c1ccccc1)c1ccccc1 [PB201, 1,3-diphenyl-1,3-propanedione]
Induction of Nrf2-dependent luciferase gene expression ([1]; A172 human brain cell line, other experiments (FIG. 5)): lower, but measurable, induction | Nrf2 gene activation and luciferase expression ([1]; brain cells (A172), this experiment (FIGS. 2-4)): no activation | Nrf2 gene activation and luciferase expression ([1]; breast cells (AREc32, MCF7), 18 h incubation): exhibited Nrf2 gene activation and luciferase expression | Nrf2 gene activation and luciferase expression ([1]; kidney cells (293T), 18 h incubation): exhibited Nrf2 gene activation and luciferase expression | Nrf2 gene activation and luciferase expression ([1]; liver cells (HepG2), 18 h incubation): exhibited Nrf2 gene activation and luciferase expression | Nrf2 gene activation and luciferase expression ([1]; lung cells (A549; constitutive Nrf2 activation due to mutation)): lesser activation; also recorded: low or negative response | fold induction at 1.5 µg/mL (HepG2 cells; vs control HepG2, read-out: Fold induction by PB201: AGPAT9): 2.46 | fold induction at 1.5 µg/mL (HepG2 cells; vs control HepG2, read-out: Fold induction by PB201: AKR1B10///AKR1B15): 5.85 | fold induction at 1.5 µg/mL (HepG2 cells; vs control HepG2, read-out: Fold induction by PB201: AKR1B15): 4.1 | fold induction at 1.5 µg/mL (HepG2 cells; vs control HepG2, read-out: Fold induction by PB201: AKR1C1): 4.97 | fold induction at 1.5 µg/mL (HepG2 cells; vs control HepG2, read-out: Fold induction by PB201: AKR1C2///LOC100653286): 6.56 | fold induction at 1.5 µg/mL (HepG2 cells; vs control HepG2, read-out: Fold induction by PB201: AQP3): 3 | fold induction at 1.5 µg/mL (HepG2 cells; vs control HepG2, read-out: Fold induction by PB201: BHMT2): 3.8 | fold induction at 1.5 µg/mL (HepG2 cells; vs control HepG2, read-out: Fold induction by PB201: CCPG1///DYX1C1-CCPG1): 2.51 | fold induction at 1.5 µg/mL (HepG2 cells; vs control HepG2, read-out: Fold induction by PB201: CYP4F3): 2.46 | fold induction at 1.5 µg/mL (HepG2 cells; vs control HepG2, read-out: Fold induction by PB201: CYP4F11): 4.43 | fold induction at 1.5 µg/mL (HepG2 cells; vs control HepG2, read-out: Fold induction by PB201: EID3): 4.18 | fold induction at 1.5 µg/mL (HepG2 cells; vs control HepG2, read-out: Fold induction by PB201: FOS): 2.91 | fold induction at 1.5 µg/mL (HepG2 cells; vs control HepG2, read-out: Fold induction by PB201: FTH1): 2.62 | fold induction at 1.5 µg/mL (HepG2 cells; vs control HepG2, read-out: Fold induction by PB201: GCLM): 4.03 | fold induction at 1.5 µg/mL (HepG2 cells; vs control HepG2, read-out: Fold induction by PB201: GLA): 2.59 | fold induction at 1.5 µg/mL (HepG2 cells; vs control HepG2, read-out: Fold induction by PB201: GSTA1///GSTA2): 6.99 | fold induction at 1.5 µg/mL (HepG2 cells; vs control HepG2, read-out: Fold induction by PB201: HMOX1): 3.64 | fold induction at 1.5 µg/mL (HepG2 cells; vs control HepG2, read-out: Fold induction by PB201: KYNU): 3.9 | fold induction at 1.5 µg/mL (HepG2 cells; vs control HepG2, read-out: Fold induction by PB201: MLLT11): 2.71 | fold induction at 1.5 µg/mL (HepG2 cells; vs control HepG2, read-out: Fold induction by PB201: OSGIN1): 3.18 | fold induction at 1.5 µg/mL (HepG2 cells; vs control HepG2, read-out: Fold induction by PB201: PANX2): 2.88 | fold induction at 1.5 µg/mL (HepG2 cells; vs control HepG2, read-out: Fold induction by PB201: PTGR1): 4.79 | fold induction at 1.5 µg/mL (HepG2 cells; vs control HepG2, read-out: Fold induction by PB201: SLC16A6): 3.8 | fold induction at 1.5 µg/mL (HepG2 cells; vs control HepG2, read-out: Fold induction by PB201: SQSTM1): 2.84 | fold induction at 1.5 µg/mL (HepG2 cells; vs control HepG2, read-out: Fold induction by PB201: SRXN1): 2.8 | fold induction at 1.5 µg/mL (HepG2 cells; vs control HepG2, read-out: Fold induction by PB201: TEX19): 3 | fold induction at 1.5 µg/mL (HepG2 cells; vs control HepG2, read-out: Fold induction by PB201: TRPV3): 3.51 | fold induction at 1.5 µg/mL (HepG2 cells; vs control HepG2, read-out: Fold induction by PB201: TUBA4A): 2.55 | Frequency and/or severity of oral mucositis (oral mucositis): decreased | Protection against oral mucositis (cheek pouch ulceration score 0-5) [2]: protected against the oral mucositis
